Data taken from patent US20110071150A1 (priority 2009, published 2011).

system: Jurkat IL-2 Production; assay: Jurkat IL-2 Production Assay; assay type: cell-based; details: Homo sapiens, Jurkat cell (ATCC), 18-20 h incubation, PHA 5 μg/mL with 1% FBS, or PMA/Ionomycin with 30% FBS (table does not say which)
Description: Jurkat IL-2 Production Assay
Cell: Jurkat cell (ATCC) was grown in RPMI 1640 with 10% FBS and 1% penicillin/streptomycin. The cell density was kept at 1.2-1.8×10^6/mL in culture flask before seeding into culture plate, and the cell density in the plate was 0.5×10^6/[…]/well.
Culture media: RPMI 1640 with 1% FBS or 30% FBS for high serum assay.
Test compound: serial dilution was done in 100% DMSO, and intermediate dilution was done with RPMI 1640 medium with 1% FBS. The DMSO final concentration in culture well was 0.25%.
Stimulant: PHA (Sigma#L9017-10MG) was used for the assay with 1% FBS in culture medium, and added after 10 minutes exposure of cell to compound/DMSO. The PHA final concentration in culture well was 5 μg/mL. PMA (Sigma# P-8139 5MG)/Ionomycin (Sigma# 10634-5MG) was used for the assay with 30% FBS in culture medium, and added at same time point as the 1% FBS culture assay. The final concentration of PMA was 50 ng/mL, and Ionomycin final concentration was 500 ng/mL.
Incubation: at 37° C. with 5% CO2 and 95% humidity for 18 h˜20 h.
IC50: IC50 was calculated with the data analysis software XLfit4, General Pharmacology model 251.

IC50 [nM] | Structure (SMILES)
397 | Cc1sc(C2CC2)nc1-c1ccc2[nH]c(-c3c(F)cccc3F)cc2c1 [Example 72, 5-(2-Cyclopropyl-5-methyl-thiazol-4-yl)-2-(2,6-difluoro-phenyl)-1H-indole]
60 | Cc1sc(-c2ncco2)nc1-c1ccc2[nH]c(-c3c(F)cccc3F)cc2c1 [Example 73, 2-(2,6-Difluoro-phenyl)-5-(5-methyl-2-oxazol-2-yl-thiazol-4-yl)-1H-indole]
668 | Cc1sc(C2CCOCC2)nc1-c1ccc2[nH]c(-c3c(F)cccc3F)cc2c1 [Example 74, 2-(2,6-Difluoro-phenyl)-5-[5-methyl-2-(tetrahydro-pyran-4-yl)-thiazol-4-yl]-1H-indole]
310 | Cn1nc(-c2cccnc2)cc1-c1ccc2[nH]c(-c3ccccc3F)cc2c1 [Example 75, 2-(2-Fluoro-phenyl)-5-(2-methyl-5-pyridin-3-yl-2H-pyrazol-3-yl)-1H-indole]
108 | CCn1nc(-c2cccnc2)cc1-c1ccc2[nH]c(-c3ccccc3F)cc2c1 [Example 76, 2-(2-Fluoro-phenyl)-5-(2-ethyl-5-pyridin-3-yl-2H-pyrazol-3-yl)-1H-indole]
169 | Cn1nc(-c2cccnc2)cc1-c1ccc2[nH]c(-c3ccccc3Cl)cc2c1 [Example 77, 2-(2-Chloro-phenyl)-5-(2-methyl-5-pyridin-3-yl-2H-pyrazol-3-yl)-1H-indole]
95 | CCn1nc(-c2cccnc2)cc1-c1ccc2[nH]c(-c3ccccc3Cl)cc2c1 [Example 78, 2-(2-Chloro-phenyl)-5-(2-ethyl-5-pyridin-3-yl-2H-pyrazol-3-yl)-1H-indole]
139 | Cc1ccccc1-c1cc2cc(-c3cc(-c4cccnc4)nn3C)ccc2[nH]1 [Example 79, 5-(2-Methyl-5-pyridin-3-yl-2H-pyrazol-3-yl)-2-o-tolyl-1H-indole]
91 | CCn1nc(-c2cccnc2)cc1-c1ccc2[nH]c(-c3ccccc3C)cc2c1 [Example 80, 5-(2-Ethyl-5-pyridin-3-yl-2H-pyrazol-3-yl)-2-o-tolyl-1H-indole]
501 | Cn1nc(-c2ccccn2)cc1-c1ccc2[nH]c(-c3ccccc3Cl)cc2c1 [Example 81, 2-(2-Chloro-phenyl)-5-(2-methyl-5-pyridin-2-yl-2H-pyrazol-3-yl)-1H-indole]
367 | Cn1nc(-c2ccccn2)cc1-c1ccc2[nH]c(-c3cc(F)ccc3Cl)cc2c1 [Example 82, 2-(2-Chloro-5-fluoro-phenyl)-5-(2-methyl-5-pyridin-2-yl-2H-pyrazol-3-yl)-1H-indole]
358 | Cn1nc(-c2ccccn2)cc1-c1ccc2[nH]c(-c3ccc(F)cc3Cl)cc2c1 [Example 83, 2-(2-Chloro-4-fluoro-phenyl)-5-(2-methyl-5-pyridin-2-yl-2H-pyrazol-3-yl)-1H-indole]
399 | Cn1nc(-c2cccnc2)cc1-c1ccc2[nH]c(-c3cccc(F)c3F)cc2c1 [Example 84, 2-(2,3-Difluoro-phenyl)-5-(2-methyl-5-pyridin-3-yl-2H-pyrazol-3-yl)-1H-indole]
149 | Cn1nc(-c2cccnc2)cc1-c1ccc2[nH]c(-c3cccc(Cl)c3Cl)cc2c1 [Example 85, 2-(2,3-Dichloro-phenyl)-5-(2-methyl-5-pyridin-3-yl-2H-pyrazol-3-yl)-1H-indole]
118 | Cn1nc(-c2cccnc2)cc1-c1ccc2[nH]c(-c3ccc(F)cc3Cl)cc2c1 [Example 86, 2-(2-Chloro-4-fluoro-phenyl)-5-(2-methyl-5-pyridin-3-yl-2H-pyrazol-3-yl)-1H-indole]
135 | Cn1nc(-c2cccnc2)cc1-c1ccc2[nH]c(-c3cc(Cl)ccc3Cl)cc2c1 [Example 87, 2-(2,5-Dichloro-phenyl)-5-(2-methyl-5-pyridin-3-yl-2H-pyrazol-3-yl)-1H-indole]
908 | COC(=O)c1ccc(-c2ccc3[nH]c(-c4c(F)cccc4F)cc3c2)c(Cl)c1 [Example 88, 4-[2-(2,6-Difluoro-phenyl)-1H-indol-5-yl]-3-chloro-benzoic acid methyl ester]
451 | Cc1cc(C(N)=O)ccc1-c1ccc2[nH]c(-c3c(F)cccc3F)cc2c1 [Example 89, 4-[2-(2,6-Difluoro-phenyl)-1H-indol-5-yl]-3-methyl-benzamide]
177 | COc1ccc(-c2ccc3[nH]c(-c4c(F)cccc4F)cc3c2)c(OC)c1 [Example 90, 2-(2,6-Difluoro-phenyl)-5-(2,4-dimethoxy-phenyl)-1H-indole]
456 | Cc1cc(F)ccc1-c1ccc2[nH]c(-c3c(F)cccc3F)cc2c1 [Example 91, 2-(2,6-Difluoro-phenyl)-5-(4-fluoro-2-methyl-phenyl)-1H-indole]

IC50 [nM] | Structure (SMILES)
188 | Fc1cccc(F)c1-c1cc2cc(-c3ccc(C(F)(F)F)cc3C(F)(F)F)ccc2[nH]1 [Example 92, 5-(2,4-Bis-trifluoromethyl-phenyl)-2-(2,6-difluoro-phenyl)-1H-indole]
921 | COc1ncc(-c2ccc3[nH]c(-c4c(F)cccc4F)cc3c2)c(OC)n1 [Example 93, 2-(2,6-Difluoro-phenyl)-5-(2,4-dimethoxy-pyrimidin-5-yl)-1H-indole]
175 | Fc1cccc(F)c1-c1cc2cc(-c3ccc(C(F)(F)F)cc3Cl)ccc2[nH]1 [Example 94, 5-(2-Chloro-4-trifluoromethyl-phenyl)-2-(2,6-difluoro-phenyl)-1H-indole]
994 | COc1ccc(-c2ccc3[nH]c(-c4c(F)cccc4F)cc3c2)c(OC)n1 [Example 95, 2-(2,6-Difluoro-phenyl)-5-(2,6-dimethoxy-pyridin-3-yl)-1H-indole]
177 | CS(=O)(=O)c1ccc(-c2ccc3[nH]c(-c4c(F)cccc4F)cc3c2)c(C(F)(F)F)c1 [Example 96, 2-(2,6-Difluoro-phenyl)-5-(4-methanesulfonyl-2-trifluoromethyl-phenyl)-1H-indole]
72 | CN(C)S(=O)(=O)c1ccc(-c2ccc3[nH]c(-c4c(F)cccc4F)cc3c2)c(C(F)(F)F)c1 [Example 97, 4-[2-(2,6-Difluoro-phenyl)-1H-indol-5-yl]-N,N-dimethyl-3-trifluoromethyl-benzenesulfonamide]
279 | COc1ccc(-c2ccc3[nH]c(-c4c(F)cccc4F)cc3c2)c(Cl)c1 [Example 98, 5-(2-Chloro-4-methoxy-phenyl)-2-(2,6-difluoro-phenyl)-1H-indole]
344 | COc1ccc(-c2ccc3[nH]c(-c4c(F)cccc4F)cc3c2)c(C(F)(F)F)c1 [Example 99, 2-(2,6-Difluoro-phenyl)-5-(4-methoxy-2-trifluoromethyl-phenyl)-1H-indole]
307 | Cc1cc(OC(F)(F)F)ccc1-c1ccc2[nH]c(-c3c(F)cccc3F)cc2c1 [Example 100, 2-(2,6-Difluoro-phenyl)-5-(2-methyl-4-trifluoromethoxy-phenyl)-1H-indole]
593 | COc1ccc(-c2ccc3[nH]c(-c4c(F)cccc4F)cc3c2)c(C)n1 [Example 101, 2-(2,6-Difluoro-phenyl)-5-(6-methoxy-2-methyl-pyridin-3-yl)-1H-indole]
74 | Cc1cc(-c2ncco2)ccc1-c1ccc2[nH]c(-c3c(F)cccc3F)cc2c1 [Example 102, 2-(2,6-Difluoro-phenyl)-5-(2-methyl-4-oxazol-2-yl-phenyl)-1H-indole]
176 | COc1cc(-c2ncco2)ccc1-c1ccc2[nH]c(-c3c(F)cccc3F)cc2c1 [Example 103, 2-(2,6-Difluoro-phenyl)-5-(2-methoxy-4-oxazol-2-yl-phenyl)-1H-indole]
178 | Cc1cc(N2CCNCC2)ncc1-c1ccc2[nH]c(-c3c(F)cccc3F)cc2c1 [Example 104, 2-(2,6-Difluoro-phenyl)-5-(4-methyl-6-piperazin-1-yl-pyridin-3-yl)-1H-indole]
664 | Cc1sc(-c2ccnnc2)nc1-c1ccc2[nH]c(-c3c(F)cccc3F)cc2c1 [Example 105, 2-(2,6-Difluoro-phenyl)-5-(5-methyl-2-pyridazin-4-yl-thiazol-4-yl)-1H-indole]
488 | Cc1sc(I)nc1-c1ccc2[nH]c(-c3c(F)cccc3F)cc2c1 [Example 106, 2-(2,6-Difluoro-phenyl)-5-(2-iodo-5-methyl-thiazol-4-yl)-1H-indole]
601 | Cn1nc(-c2cc[nH]n2)cc1-c1ccc2[nH]c(-c3c(F)cccc3F)cc2c1 [Example 108, 2-(2,6-Difluoro-phenyl)-5-(1-methyl-1H,1′H-[3,3]bipyrazolyl-5-yl)-1H-indole]
190 | Cn1nc(-c2ncco2)cc1-c1ccc2[nH]c(-c3c(F)cccc3F)cc2c1 [Example 110, 2-(2,6-Difluoro-phenyl)-5-(2-methyl-5-oxazol-2-yl-2H-pyrazol-3-yl)-1H-indole]
318 | Cn1nc(Br)cc1-c1ccc2[nH]c(-c3c(F)cccc3F)cc2c1 [Example 111, 5-(5-Bromo-2-methyl-2H-pyrazol-3-yl)-2-(2,6-difluoro-phenyl)-1H-indole]
843 | COc1cc(C)c(-c2ccc3[nH]c(-c4ccccc4F)cc3c2)cn1 [Example 112, 2-(2-Fluoro-phenyl)-5-(6-methoxy-4-methyl-pyridin-3-yl)-1H-indole]
60 | COc1cc(C)c(-c2ccc3[nH]c(-c4c(F)cccc4F)cc3c2)cn1 [Example 113, 2-(2,6-Difluoro-phenyl)-5-(6-methoxy-4-methyl-pyridin-3-yl)-1H-indole]
